Data: PMC12197210, “mPEG-PCL Nanoparticles to Improve Oral Bioavailability of Acalabrutinib: Effect of Polymer Lipophilicity and Hydrophilicity on Physicochemical Properties and In Vivo Performance in Rats” (Pharmaceutics, 2025)
Converted amounts (≈) assume the structure as drawn. Like-named read-outs stand apart in the source and are kept apart here.

Tests used:
[1] = In vitro dissolution/drug release, USP Type II apparatus, membrane-less method; format: physicochemical
Experimental: A membrane-less method using a USP Type II dissolution apparatus (Manual operating model with 8 stations, Electrolab (India) Pvt. Ltd., Mumbai, India) was employed to evaluate the dissolution and drug release behavior of both bulk ACP and freeze-dried ACP-PLHNs (both types, equivalent to 100 mg free base) under physiological pH conditions. The gastrointestinal pH was simulated with three different buffer solutions: a 0.1 N HCl buffer (pH 1.2 ± 0.02, volume = 250 mL) representing the fasted stomach; an acetate buffer (pH 4.5 ± 0.02, volume = 250 mL) representing the fed stomach; and a phosphate buffer solution (PBS, pH 6.8 ± 0.02, volume = 900 mL) representing the intestinal environment. To simulate blood/plasma conditions, 500 mL of PBS (pH 7.2 ± 0.02) was used. To maintain sink conditions, 0.5% w/v sodium dodecyl sulfate (SDS) was added to media with pH ≥ 4.5, and the volume of medium was kept at 3× the volume required to maintain the saturation solubility of ACP. The formulations were dispersed in the dissolution media, which was continuously stirred at 75 rpm and maintained at 37 ± 2 °C. Samples (1000 μL) were withdrawn at specific time intervals and replaced with an equal volume of fresh media (pre-heated to 37 ± 2 °C). The samples were then centrifuged at 15,373× g for 5 min, and the supernatant was collected, diluted with the mobile phase (methanol and a 10 mM ammonium acetate buffer, pH 3.5, in a 52:48 v/v ratio), and analyzed using the HPLC-UV method outlined in Section 2.3.3. The dissolution data were fitted to different mathematical models to determine the drug release kinetics. The best-fitting model was identified based on the regression coefficient.

[2] = test system: P-glycoprotein (P-gp) efflux transporter; set-up: method as in earlier work; settings: cited from earlier work
[3] = set-up: method as in earlier work; settings: cited from earlier work
[4] = cited from earlier work
[5] = test system: CYP3A enzyme system; set-up: method as in earlier work; settings: cited from earlier work

SMILES: CC#CC(=O)N1CCC[C@H]1c1nc(-c2ccc(C(=O)Nc3ccccn3)cc2)c2c(N)nccn12 [ACP, Acalabrutinib]
- time to complete dissolution ([1]; pH 1.2, sink conditions): ≤ 30 min
- time to complete dissolution ([1]; pH 4.5, sink conditions): ≤ 30 min
- time of complete (100%) release/dissolution ([1]; pH 6.8, sink conditions): ≤ 2 h
- time of complete (100%) release/dissolution ([1]; pH 7.2, sink conditions): ≤ 4 h
- P-gp efflux transporter substrate status [2]: substrate
- oral bioavailability [3]: 25 ± 11%
- aqueous solubility ([4]; pH 1): 29200 µg/mL (≈ 62700 µM)
- aqueous solubility ([4]; pH 4.5): 159 µg/mL (≈ 342 µM)
- aqueous solubility ([4]; pH 6.8): 52.3 µg/mL (≈ 112 µM)
- solubility ([4]; pH values above 6): practically insoluble
- metabolism by CYP3A [5]: metabolized by the CYP3A enzyme system
